Results from article PMC6661771, “Indole hybridized diazenyl derivatives: synthesis, antimicrobial activity, cytotoxicity evaluation and docking studies” (BMC Chemistry, 2019).
≈ marks a conversion by molar mass, not a printed value.

Key:
[1] = tested on: E. coli; assay: MIC by tube dilution method; type: cell-based; settings: Escherichia coli, 24 h, 24 h at 37 °C, read-out: MIC
[2] = tested on: S. aureus; assay: MIC by tube dilution method; type: cell-based; settings: Staphylococcus aureus, 24 h at 37 °C, read-out: MIC
[3] = tested on: S. enterica; assay: MIC by tube dilution method; type: cell-based; settings: Salmonella enterica, 24 h, 24 h at 37 °C, read-out: MIC
[4] = tested on: B. subtilis; assay: MIC by tube dilution method; type: cell-based; settings: Bacillus subtilis, 24 h at 37 °C, read-out: MIC
[5] = tested on: K. pneumonia; assay: MIC by tube dilution method; type: cell-based; settings: Klebsiella pneumoniae, 24 h, 24 h at 37 °C, read-out: MIC
[6] = tested on: A. niger; assay: MIC by tube dilution method; type: cell-based; settings: Aspergillus niger, 168 h, 7 days at 25 °C, read-out: MIC
[7] = tested on: A. fumigatus; assay: MIC by tube dilution method; type: cell-based; settings: Aspergillus fumigatus, 168 h, 7 days at 25 °C, read-out: MIC
[8] = tested on: E. coli; assay: Minimum bactericidal concentration (MBC); type: cell-based; settings: Escherichia coli
[9] = tested on: S. aureus; assay: Minimum bactericidal concentration (MBC); type: cell-based; settings: Staphylococcus aureus
[10] = tested on: S. enterica; assay: Minimum bactericidal concentration (MBC); type: cell-based; settings: Salmonella enterica; S. enterica; MBC; read-out: MBC/MFC
Experimental: After MIC assessment, the indole derivatives (DS1–DS21), were additionally evaluated for MBC and MFC values. […] The 10–15 ml of nutrient agar and Sabouraud dextrose agar was added to the petri plates for bacterial and fungal samples respectively with gentle shaking of plates in order to mix the culture throughout the media. Allowed the media to solidify. The petri plates were then incubated for the predefined time and temperature as referenced already for bacterial and fungal cultures respectively. The plates were then investigated visually for the development of microbial growth. The MBC and MFC were stated as the minimum concentration of the compounds in aliquots showing no visual growth after incubation.

[11] = tested on: B. subtilis; assay: Minimum bactericidal concentration (MBC); type: cell-based; settings: Bacillus subtilis
[12] = tested on: K. pneumonia; assay: Minimum bactericidal concentration (MBC); type: cell-based; settings: Klebsiella pneumoniae
[13] = tested on: A. niger; assay: Minimum fungicidal concentration (MFC); type: cell-based; settings: Aspergillus niger, read-out: MBC/MFC
[14] = tested on: A. fumigatus; assay: Minimum fungicidal concentration (MFC); type: cell-based; settings: Aspergillus fumigatus, read-out: MBC/MFC
[15] = tested on: HCT 116; assay: MTT cell proliferation assay; type: cell-based; settings: Homo sapiens, HCT-116, 48 h, HCT 116 colon cancer, 48 h of drug treatment
Experimental: (§1) The cell lines used in study were initially procured from the National Centre for Cell Sciences (NCCS), Pune, India, and maintained in DMEM. The cell line was cultured in 25 cm^2 tissue culture flask with DMEM supplemented with 10% FBS, sodium bicarbonate, L-glutamine, and antibiotic solution containing: streptomycin (100 μg/ml), penicillin (100 U/ml). Cultured cell line was kept at 37 °C in a humidified 5% CO2 incubator (VWR, USA).
(§2) The compounds found to have good antimicrobial potential were then screened for their cytotoxicity using MTT […]) assay. 1 × 10^4 cells/well were seeded in 100 µl DMEM/MEM, supplemented with 10% FBS in each well of 96-well microculture plates and incubated for 24 h at 37 °C in a CO2 incubator. After incubation, all the prepared/synthesized compounds were added to the cells at 10, 25, 50 and 100 µg concentrations for 48 h. After 48 h of drug treatment, 10 µl MTT (5 mg/ml) was added to each well and the plates were further incubated for 4 h. Then the supernatant from each well was carefully removed, formazan crystals were dissolved in 100 µl of DMSO and absorbance at 570 nm wavelength was recorded on an ELISA reader. The IC50 value was calculated using the linear regression equation i.e. Y = Mx + C. Here, Y = 50, M and C values were derived from the viability graph. The assay was performed in triplicate.

[16] = tested on: K562; assay: MTT cell proliferation assay; type: cell-based; settings: Homo sapiens, K562 leukemia, 48 h of drug treatment
Experimental: as §1, §2

[17] = tested on: MDA MB 231; assay: MTT cell proliferation assay; type: cell-based; settings: Homo sapiens, MDA-MB-231, 48 h, MDA MB 231 breast cancer, 48 h of drug treatment, read-out: IC50
Experimental: as §1, §2

[18] = tested on: HEK-293; assay: MTT cell proliferation assay, normal cells; type: cell-based; settings: Homo sapiens, HEK293, HEK-293 normal cells, 48 h of drug treatment
Experimental: as §1, §2

Row | SMILES | MIC [1] [µg/mL] | MIC [2] [µg/mL] | MIC [3] [µg/mL] | MIC [4] [µg/mL] | MIC [5] [µg/mL] | MIC [6] [µg/mL] | MIC [7] [µg/mL] | MBC [8] [µg/mL] | MBC [9] [µg/mL] | MBC [10] [µg/mL] | MBC [11] [µg/mL] | MBC [12] [µg/mL] | MFC [13] [µg/mL] | MFC [14] [µg/mL] | IC50 [15] [µg/mL] | IC50 [16] [µg/mL] | IC50 [17] [µg/mL] | IC50 [18] [µg/mL] | melting point [°C]
1 | C/C(=N/c1nnc(-c2ccc([N+](=O)[O-])cc2Cl)s1)c1ccc(/N=N\c2c[nH]c3ccc([N+](=O)[O-])cc23)cc1 [DS-3, (Z)-5-(2-Chloro-4-nitrophenyl)-N-(1-(4-((Z)-(5-nitro-1H-indol-3-yl)diazenyl)phenyl)ethylidene)-1,3,4-thiadiazol-2-amine] | 3.9 (≈ 7.13 µM) | 62.5 (≈ 114 µM) | 31.2 (≈ 57.1 µM) | 31.2 (≈ 57.1 µM) | 1.95 (≈ 3.57 µM) | 62.5 (≈ 114 µM) | 15.6 (≈ 28.6 µM) | 31.2 (≈ 57.1 µM) | 62.5 (≈ 114 µM) | 31.2 (≈ 57.1 µM) | 62.5 (≈ 114 µM) | 31.2 (≈ 57.1 µM) | 125 (≈ 229 µM) | 62.5 (≈ 114 µM) | 110 ± 2.55 (≈ 201 µM) | 146 ± 2.11 (≈ 267 µM) | 46 ± 1.83 (≈ 84 µM) | 311.2 ± 1.76 (≈ 569 µM) | 155 to 160
2 | C/C(=N/c1cc(Cl)ccc1Cl)c1ccc(/N=N\c2c[nH]c3ccc([N+](=O)[O-])cc23)cc1 [DS-10, (Z)-2,5-Dichloro-N-(1-(4-((Z)-(5-nitro-1H-indol-3-yl)diazenyl)phenyl)ethylidene)aniline] | 1.95 (≈ 4.31 µM) | 62.5 (≈ 138 µM) | 31.2 (≈ 69.1 µM) | 62.5 (≈ 138 µM) | 3.9 (≈ 8.62 µM) | 62.5 (≈ 138 µM) | 125 (≈ 276 µM) | 31.2 (≈ 69.1 µM) | 125 (≈ 276 µM) | 62.5 (≈ 138 µM) | 125 (≈ 276 µM) | – | 125 (≈ 276 µM) | 125 (≈ 276 µM) | 204.9 ± 1.62 (≈ 453 µM) | 199 ± 3.13 (≈ 439 µM) | 130 ± 3.51 (≈ 287 µM) | 274 ± 4.58 (≈ 606 µM) | 210 to 215
